In US12486489B2, “Culture medium for testing drug resistance of H.pylori as well as preparation method and use thereof” (priority 2022, dated 2025):

How the values were obtained:
[1] = test system: H. pylori; assay: Verification of resistance breakpoint: growth of laboratory strains on Columbia solid culture medium with added antibiotics, 72 hours; type: cell-based, Helicobacter pylori
Procedure: The plates are cooled and inverted for approximately 10 mL/piece, marked properly for the subsequent use.
(2) Preparation of bacterial solution: H. pylori grown in logarithmic phase on a solid plate is taken to prepare a bacterial suspension by using BHI. The concentration OD600 is adjusted to 0.3 (1×10^8 CFU/mL), diluted 10 times for the subsequent use.
(3) Inoculation of bacterial solution: 10 μL of bacterial solution is taken and added to Columbia culture medium and the results are determined after cultivating for 72 hours.
(4) Result determination: the minimum drug concentration for no growth of bacteria on the plate is the minimum inhibitory concentration of the bacteria against the drug.

[2] = test system: H. pylori; settings: bacterial count 1×10^6 CFU/mL; cited from earlier work
[3] = test system: H. pylori; assay: Drug resistance testing of laboratory strains on characteristic culture medium (discoloration after 36 hours); type: cell-based, Helicobacter pylori
Procedure: The characteristic culture media (A, B, C, D, E) are cultivated at a constant temperature of 37° C. for 36 hours in a three gas incubator. The characteristic culture media are removed and placed in a natural environment for 30 minutes to observe whether there are discolorations at the point of the culture medium where the specimen is dropped in. […] Another 100 μL of the specimen is taken and coated on Columbia solid culture medium and cultivated in a three gas incubator at a constant temperature of 37° C. for 3 days to 5 days. The number of colonies on the plate is counted to determine the initial inoculation amount. The micro dilution method is adopted to test the MIC of clinical specimen H. pylori, the test is meaningful only when there is no bacterial growth in the negative control well without bacteria and there is bacterial growth in the positive well with bacteria but without antibiotics. […] The results are recorded and whether the micro dilution method and characteristic culture medium are consistent with each other in evaluating the drug resistance of clinical H. pylori strains is compared. […]
(2) Inoculation of bacterial solution: 10 μL bacterial solution is taken and added dropwise onto a characteristic culture medium with 5 pieces (ABCDE) in total.
(3) Culture: all plates are moved to a three gas incubator and cultivated at 37° C. for 36 hours. After being taken out and placed in a natural environment for 30 minutes, whether the bacteria have resistance is determined based on the discoloration of the characteristic culture medium.

[4] = test system: clinical H. pylori strain; assay: Drug resistance testing of clinical specimens on characteristic culture medium (discoloration after 36 hours); type: cell-based, Helicobacter pylori
Procedure: The characteristic culture media (A, B, C, D, E) are cultivated at a constant temperature of 37° C. for 36 hours in a three gas incubator. The characteristic culture media are removed and placed in a natural environment for 30 minutes to observe whether there are discolorations at the point of the culture medium where the specimen is dropped in. […] Another 100 μL of the specimen is taken and coated on Columbia solid culture medium and cultivated in a three gas incubator at a constant temperature of 37° C. for 3 days to 5 days. The number of colonies on the plate is counted to determine the initial inoculation amount. The micro dilution method is adopted to test the MIC of clinical specimen H. pylori, the test is meaningful only when there is no bacterial growth in the negative control well without bacteria and there is bacterial growth in the positive well with bacteria but without antibiotics.
(1) Transfer liquid preparation: after sterilization and cooling, BHI culture medium is added with 10% calf serum, followed by 30% glycerol to prepare H. pylori preservation solution. On this basis, 1% H. pylori selective additive is added to prepare the transfer liquid. 1 mL of transfer solution is taken into a sterile EP tube, and 6-8 sterilized small steel balls are poured into the EP tube for the subsequent use.
(3) Specimen acquisition: a biopsy tissue group is obtained from the gastric antrum and a small curvature side of the gastric body through a gastroscopy biopsy passage and placed into an EP tube (strictly sterile operation). The biopsy tissue is placed on the ice surface and transferred as soon as possible (within 2 hours) to complete the subsequent steps.
(4) Preparation of bacterial solution containing tissue: the EP tube containing tissue is placed in a homogenizer at 300 hz and crushed for 5 minutes, transferred to another EP, centrifuged at 12000 rpm for 2 minutes, the supernatant is discarded, BHI is resuspended to 200 μL, and a bacterial suspension is prepared for the subsequent use.
(5) Inoculation of bacterial solution: 10 μL of bacterial solution is taken and added dropwise to the characteristic culture medium (5 pieces in total). The characteristic culture medium is removed after cultivating in a three gas incubator at 37° C. for 36 hours, and the results are determined after leaving for 30 minutes; another 100 μL is taken and coated onto Colombian culture medium for the traditional bacterial culture.

Cc1ncc([N+](=O)[O-])n1CCO [Metronidazole, metronidazole]
optimal concentration for adding antibiotics ([1]; conclusion of breakpoint verification): 4 µg/mL | growth of sensitive strains ([1]; levofloxacin 0.5, clarithromycin 0.5, metronidazole 4, amoxicillin 0.5 μg/mL): no sensitive strain grows | growth of bacterial ([1]; strain 159, antibiotic 2 μg/mL): + | growth of bacterial ([1]; strain 159, antibiotic 4 μg/mL): + | growth of bacterial ([1]; strain 159, antibiotic 8 μg/mL): − | growth of bacterial ([1]; strain 161, antibiotic 2 μg/mL): + | growth of bacterial ([1]; strain 161, antibiotic 4 μg/mL): + | growth of bacterial ([1]; strain 161, antibiotic 8 μg/mL): − | growth of bacterial ([1]; strain 162, antibiotic 2 μg/mL): + | growth of bacterial ([1]; strain 162, antibiotic 4 μg/mL): − | growth of bacterial ([1]; strain 162, antibiotic 8 μg/mL): − | growth of bacterial ([1]; strain 163, antibiotic 2 μg/mL): + | growth of bacterial ([1]; strain 163, antibiotic 4 μg/mL): + | growth of bacterial ([1]; strain 163, antibiotic 8 μg/mL): − | growth of bacterial ([1]; strain 286, antibiotic 2 μg/mL): + | growth of bacterial ([1]; strain 286, antibiotic 4 μg/mL): + | growth of bacterial ([1]; strain 286, antibiotic 8 μg/mL): − | growth of bacterial ([1]; strain 287, antibiotic 2 μg/mL): + | growth of bacterial ([1]; strain 287, antibiotic 4 μg/mL): + | growth of bacterial ([1]; strain 287, antibiotic 8 μg/mL): − | growth of bacterial ([1]; strain 289, antibiotic 2 μg/mL): + | growth of bacterial ([1]; strain 289, antibiotic 4 μg/mL): + | growth of bacterial ([1]; strain 289, antibiotic 8 μg/mL): − | growth of bacterial ([1]; strain 290, antibiotic 2 μg/mL): + | growth of bacterial ([1]; strain 290, antibiotic 4 μg/mL): + | growth of bacterial ([1]; strain 290, antibiotic 8 μg/mL): + | growth of bacterial ([1]; strain 26695, antibiotic 2 μg/mL): + | growth of bacterial ([1]; strain 26695, antibiotic 4 μg/mL): − | growth of bacterial ([1]; strain 26695, antibiotic 8 μg/mL): − | growth of bacterial ([1]; strain G27, antibiotic 2 μg/mL): + | growth of bacterial ([1]; strain G27, antibiotic 4 μg/mL): − | growth of bacterial ([1]; strain G27, antibiotic 8 μg/mL): − | resistance breakpoints of H. pylori according to CLSI guidelines [2]: 8 µg/mL | drug resistance determined by discoloration of characteristic culture medium ([3]; strain 159, 1×10^6 CFU/mL): developed resistance | drug resistance determined by discoloration of characteristic culture medium ([3]; strain 286, 1×10^6 CFU/mL): have developed resistance | drug resistance determined by discoloration of characteristic culture medium ([3]; strain 287, 1×10^6 CFU/mL): have developed resistance | drug resistance determined by discoloration of characteristic culture medium ([3]; strain 289, 1×10^6 CFU/mL): have developed resistance | drug resistance determined by discoloration of characteristic culture medium ([3]; strain G27, 1×10^6 CFU/mL): does not develop resistance | drug resistance determined on characteristic culture medium ([4]; clinical H. pylori strain FY-31): sensitive | drug resistance determined on characteristic culture medium ([4]; clinical H. pylori strain FY-43): sensitive | drug resistance determined on characteristic culture medium ([4]; clinical H. pylori strain FY-47): resistant | drug resistance determined on characteristic culture medium ([4]; clinical H. pylori strain FY-52): sensitive
